Assay results taken from PMC6269039, “Synthesis and Cytotoxicity Testing of New Amido-Substituted Triazolopyrrolo[2,1-c][1,4]benzodiazepine (PBDT) Derivatives” (Molecules, 2012).

Experiments:
Mahlavu cells [1] = test: cells; conditions: Homo sapiens, 48 h; for viability at 100 µM: read-out: percentage of viable Mahlavu cells (cell viability); for IC50: read-out: IC50 for Mahlavu cells
Experimental: (§1) The cytotoxic activities of the newly synthesized amido-substituted triazolopyrrolo [2,1-c][1,4]benzodiazepines PBDT-7a–k were tested against Mahlavu and MRC-5 cells. After incubation of the cells with the compounds at concentrations of 3.12, 6.25, 12.50, 25.0, 50.0 and 100 µM for 48 h, the cell growth and viability were assessed by using CCK-8 assay.
(§2) Human hepatocellular carcinoma (Mahlavu) epithelial cells were used for cell culture experiments. Cells were cultured with 90% Dulbecco’s modified Eagle’s medium with 10% fetal bovine serum, 100 U/mL penicillin, and 100 μg/mL streptomycin. The cells were placed in an incubator to maintain high humidity, a temperature of 37 °C, and 5% CO2 for cell culture experiments. Cells were routinely sub-passaged in a 1:4 to 1:6 split using 0.25% trypsin.
(§3) The cell viability was determined using a CCK-8 assay following the manufacturer’s instructions. Mahlavu cells and MRC-5 cells were seeded in 96-well plates and allowed to attach overnight at 37 °C. Cells were treated with PBDT-7a–k in 0.1% FBS MEM or DMEM (100 μL/well), and the cells were incubated for 48 h in a humidified atmosphere. After the incubation period, 10 μL of cell Counting Kit-8 solution was added to the medium, and the cells were incubated for an additional 1–4 h in the incubator. The absorbance at 450 nm was then measured using a microplate reader. The IR was calculated using the following equation: IR = [1 − (A value for the treated samples − A value for the blank samples)/(A value for the control samples − A value for the blank samples)] × 100%. The assays were performed in triplicate and repeated at least twice.
(§4) Mahlavu cells were treated with PBDT-7 series compounds for 48 h, and survival was assessed using a CCK-8 assay (mean ± SEM, n = 6).

in vitro = conditions: human
Experimental: (§5) After incubation of the cells with the compounds at concentrations of 3.12, 6.25, 12.50, 25.0, 50.0 and 100 µM for 48 h, the cell growth and viability were assessed by using CCK-8 assay.
(§6) Human fibroblast cells (MRC-5) cells were used for cell culture experiments. Cells were cultured with 90% Eagle’s minimum essential medium with 2 mM L-glutamine and Earle’s BSS adjusted to contain 1.5 g/L sodium bicarbonate, 0.1 mM non-essential amino acids, 1.0 mM sodium pyruvate with 10% fetal bovine serum, 100 U/mL penicillin, and 100 μg/mL streptomycin. The cells were placed in an incubator to maintain high humidity, 37 °C, and 5% CO2 for the cell culture experiments. Cells were routinely sub-passaged in a 1:2 to 1:5 split using 0.25% trypsin.
(§7) The cell viability was determined using a CCK-8 assay following the manufacturer’s instructions. Mahlavu cells and MRC-5 cells were seeded in 96-well plates and allowed to attach overnight at 37 °C. […] After the incubation period, 10 μL of cell Counting Kit-8 solution was added to the medium, and the cells were incubated for an additional 1–4 h in the incubator. The absorbance at 450 nm was then measured using a microplate reader. The IR was calculated using the following equation: IR = [1 − (A value for the treated samples − A value for the blank samples)/(A value for the control samples − A value for the blank samples)] × 100%. The assays were performed in triplicate and repeated at least twice.

Mahlavu cells [2] = conditions: 48 h, CCK-8; for effect on viability of Mahlavu cells, in words: 100 µM
Experimental: as §1, §2, §3, §4

MRC-5 cells = test: CCK-8 cytotoxicity assay, MRC-5 cells; conditions: 48 h
Experimental: as §5, §6, §7

Row | SMILES | melting point | viability at 100 µM (Mahlavu cells [1]) | viability at 48 h, 100 µM (in vitro) | other results
1 | O=C(Nc1nnc2n1-c1ccccc1C(=O)N1CCC[C@@H]21)c1cccnc1 [PBDT-7j, N-((13aS)-9-Oxo-11,12,13,13a-tetrahydro-9H-benzo[e]pyrrolo[1,2-a][1,2,4]triazolo[3,4-c][1,4]diazepin-3-yl)nicotinamide] | 225 °C | > 75% | > 75% | –
2 | COc1cccc(C(=O)Nc2nnc3n2-c2ccccc2C(=O)N2CCC[C@@H]32)c1 [PBDT-7f, 3-Methoxy-N-((13aS)-9-oxo-11,12,13,13a-tetrahydro-9H-benzo[e]pyrrolo[1,2-a][1,2,4]triazolo[3,4-c][1,4]diazepin-3-yl)benzamide] | 168 to 170 °C | 37% | – | –
3 | O=C(Nc1nnc2n1-c1ccccc1C(=O)N1CCC[C@@H]21)c1cccc(Cl)c1 [PBDT-7h, 3-Chloro-N-((13aS)-9-oxo-11,12,13,13a-tetrahydro-9H-benzo[e]pyrrolo[1,2-a][1,2,4]triazolo[3,4-c][1,4]diazepin-3-yl)benzamide] | – | – | – | survival rate of Mahlavu cells (Mahlavu cells [2]; 50 µM): below 50%; inhibition of Mahlavu cells, in words (Mahlavu cells [2]): potent inhibitor; toxicity to MRC-5 (normal) cells, in words (MRC-5 cells): highly toxic
4 | O=C(Nc1nnc2n1-c1ccccc1C(=O)N1CCC[C@@H]21)c1cccs1 [PBDT-7k, N-((13aS)-9-Oxo-11,12,13,13a-tetrahydro-9H-benzo[e]pyrrolo[1,2-a][1,2,4]triazolo[3,4-c][1,4]diazepin-3-yl)thiophene-2-carboxamide] | 185 to 186 °C | > 75% | > 75% | –
5 | CC(C)(C)C(=O)Nc1nnc2n1-c1ccccc1C(=O)N1CCC[C@@H]21 [PBDT-7a, ((13aS)-9-Oxo-11,12,13,13a-tetrahydro-9H-benzo[e]pyrrolo[1,2-a][1,2,4]triazolo[3,4-c][1,4]diazepin-3-yl)pivalamide] | 213 to 215 °C | > 75% | > 75% | –
6 | O=C(Nc1nnc2n1-c1ccccc1C(=O)N1CCC[C@@H]21)c1ccccc1F [PBDT-7c, 2-Fluoro-N-((13aS)-9-oxo-11,12,13,13a-tetrahydro-9H-benzo[e]pyrrolo[1,2-a][1,2,4]triazolo[3,4-c][1,4]diazepin-3-yl)benzamide] | – | – | – | effect on viability of Mahlavu cells, in words (Mahlavu cells [2]): little effect
7 | O=C(Nc1nnc2n1-c1ccccc1C(=O)N1CCC[C@@H]21)c1cccc(C(F)(F)F)c1 [PBDT-7i, N-((13aS)-9-Oxo-11,12,13,13a-tetrahydro-9H-benzo[e]pyrrolo[1,2-a][1,2,4]triazolo[3,4-c][1,4]diazepin-3-yl)-3-(trifluoromethyl)benzamide] | – | 2% | – | inhibition of Mahlavu cells, in words (Mahlavu cells [2]): selectively inhibit the growth; IC50 (Mahlavu cells [1]): 50 µM; toxicity to MRC-5 (normal) cells, in words (MRC-5 cells): low-toxic
8 | O=C(Nc1nnc2n1-c1ccccc1C(=O)N1CCC[C@@H]21)c1ccc(F)cc1 [PBDT-7e, 4-Fluoro-N-((13aS)-9-oxo-11,12,13,13a-tetrahydro-9H-benzo[e]pyrrolo[1,2-a][1,2,4]triazolo[3,4-c][1,4]diazepin-3-yl)benzamide] | – | – | – | effect on viability of Mahlavu cells, in words (Mahlavu cells [2]): little effect
9 | N#Cc1cccc(C(=O)Nc2nnc3n2-c2ccccc2C(=O)N2CCC[C@@H]32)c1 [PBDT-7g, 3-Cyano-N-((13aS)-9-oxo-11,12,13,13a-tetrahydro-9H-benzo[e]pyrrolo[1,2-a][1,2,4]triazolo[3,4-c] [1,4]diazepin-3-yl)benzamide] | 245 to 246 °C | 36% | – | IC50 (Mahlavu cells [1]): 50 µM
10 | O=C(Nc1nnc2n1-c1ccccc1C(=O)N1CCC[C@@H]21)c1ccccc1 [PBDT-7b, N-((13aS)-9-Oxo-11,12,13,13a-tetrahydro-9H-benzo[e]pyrrolo[1,2-a][1,2,4]triazolo[3,4-c][1,4]diazepin-3-yl)benzamide] | 173 to 175 °C | > 75% | > 75% | –
11 | O=C(Nc1nnc2n1-c1ccccc1C(=O)N1CCC[C@@H]21)c1cccc(F)c1 [PBDT-7d, 3-Fluoro-N-((13aS)-9-oxo-11,12,13,13a-tetrahydro-9H-benzo[e]pyrrolo[1,2-a][1,2,4]triazolo[3,4-c][1,4]diazepin-3-yl)benzamide] | 159 to 160 °C | ~61% | – | –
